# Measurements: the METLIN SMRT retention time set (Domingo-Almenara et al. 2019)
# Test: gradient 5% acetonitrile 3 min, to 50% in 2 min, to 85% in 15 min, held 3 min, 100 µL/min
# Settings: column: Zorbax Extend-C18 2.1 x 50 mm; eluents: water / acetonitrile, 0.1% formic acid
# How it was run: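 In both positive and negative ionization mode, a quadrupole time-of-flight mass spectrometer coupled to HPLC analyzed pure standards run in mixtures of ~100 molecules. The Zorbax Extend-C18 column (2.1 × 50 mm, 1.8 μm) was operated at 100 μL/min with water and acetonitrile, each containing 0.1% formic acid. The dead volume was 40 μL and the dwell volume 900 μL. Retention time came from adduct peaks that were computationally picked and individually inspected by hand.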
row,Structure (SMILES),RP-LC retention time
1,COc1ccc(N2C=C(C(=O)N3CCCC3)S(=O)(=O)c3ccc(Cl)cc32)cc1,856 s
2,COCCC1CCN(C(=O)COc2cccc(Cl)c2)CC1,855 s
3,CCOc1cc(C(=O)N2CCNC(=O)C2C)cc(OCC)c1OCC (centres undefined),638 s
4,COc1ccc(C2(C(=O)N3CCC(c4ncc(C)n4C(C)C)C3)CC2)cc1 (centres undefined),530 s
5,Cc1[nH]c(=O)[nH]c(=O)c1CC(=O)NCCn1nc(-c2ccco2)ccc1=O,552 s
6,CN1CCCC1c1nc(C2CN(C(=O)c3ccnn3C)C2)no1 (centres undefined),543 s
7,CCCN1C(=O)C2CCC(=O)N2c2ccc(C(=O)NC(C)(C)CC)cc21 (centres undefined),812 s
8,COc1cc(-c2nc3nc4ccccc4nc3n2CC2CCCO2)cc(OC)c1OC (centres undefined),795 s
9,CC1(C(=O)NCc2ccccc2)CN(S(=O)(=O)c2ccccc2)CC(=O)N1C1CCCCC1 (centres undefined),992 s
10,CC(C)CC(=O)N1CC(c2nc(-c3ccc(F)cc3)no2)C2(CCOCC2)C1 (centres undefined),926 s
11,CC1CS(=O)(=O)N(c2cccc(C(=O)N3CCN(c4ccccc4F)CC3)c2)C1=O (centres undefined),790 s
12,CCCn1ccc2sc(C)c(C(=O)NC3CCCCC3)c2c1=O,884 s
13,Cc1nc2cc(N3CCC(C(=O)Nc4ccc5c(c4)OCO5)CC3)cnc2nc1C,695 s
14,CCN(c1ccc(F)cc1)S(=O)(=O)c1cc2n(c1)CCCNC2=O,721 s
15,Cc1ccc(C(=O)N2CCN(c3ccccn3)CC2)cc1NC(=O)C1=CSCCO1,604 s
16,Cc1ccc(CCN2CC(C(=O)N3CCN(c4cc(=O)n(C)c(=O)n4C)CC3)CC2=O)cc1 (centres undefined),656 s
17,COc1ccc(CNC2=NCCNC23CCN(S(=O)(=O)c2ccc(C)c(C)c2)CC3)cc1,775 s
18,Cc1cccc(NC(=O)N2CCC(N3CCN(Cc4ccccn4)C(=O)C3=O)CC2)c1,610 s
19,O=C(Cc1cccc(F)c1)N1CCC(Nc2ncnc3c2CCC3)C1 (centres undefined),617 s
20,COc1ccc(NC(=O)Cn2c(=O)c(CCC(=O)NC3CCCC3)nc3ccccc32)cc1Cl,681 s
21,CCNC(=O)C1CCCN(c2nc3ncn(CC(=O)Nc4cc(F)cc(F)c4)c(=O)c3s2)C1 (centres undefined),688 s
22,CCn1ccc2c(cc(C(=O)NCc3ccc4c(c3)OCO4)n2C)c1=O,676 s
23,CC(C)n1c(N2CCN(C(=O)Cc3c[nH]c4ccccc34)CC2)cc(=O)n(C(C)C)c1=O,824 s
24,COc1ccccc1C1(CNS(=O)(=O)c2cccc(Cl)c2C)CCOCC1,969 s
25,O=C(Cn1c(=O)c(S(=O)(=O)c2ccccc2)cc2ccccc21)N1CCCC1,757 s

row,Structure (SMILES),RP-LC retention time
1,CCN(CC)S(=O)(=O)c1ccc(-c2c(C)noc2C)cc1,936 s
2,CCOc1ccccc1NC(=O)N1CCCC1c1cc(C)no1 (centres undefined),854 s
3,O=C(Nc1ccc2c(c1)OCCO2)N1CCC2(CC1)CC(N1CCOCC1)CCO2 (centres undefined),572 s
4,CCCC(=O)Nc1ccc2nc(N3CCN(c4cccc(OC)c4)CC3)cc(C(=O)O)c2c1,647 s
5,CC(C)C(=O)NCC12CCCC=C1NC(=O)CC2 (centres undefined),624 s
6,COC(=O)c1cccc(C(=O)N2CCN(c3ccccc3F)CC2)n1,777 s
7,Cc1nnc(-c2cc(C)n(CC(=O)Nc3ccc(Cl)cc3C)c2C)o1,810 s
8,O=C(NCc1ccco1)C1CCCN(c2nccnc2Sc2ccccc2)C1 (centres undefined),880 s
9,COCCN1CCn2cc(S(=O)(=O)NCc3ccc(F)cc3Cl)cc2C1=O,735 s
10,Cc1ccc(C(=O)N2CCN(c3ccc(=O)n(-c4ccc(Cl)cc4)n3)CC2)s1,885 s
11,FC(F)(F)c1cccc(CN2CCCN(c3ncccc3-c3nc(C4CC4)no3)CC2)c1,765 s
12,CC1CCCN(c2ccc(-c3noc(CN4CCSCC4)n3)cn2)C1 (centres undefined),856 s
13,O=C1CCCc2cc(S(=O)(=O)NCCN3CCN(c4ccccc4)CC3)ccc2N1,621 s
14,O=C1COc2ccc(S(=O)(=O)N3CCC(C(=O)NCc4ccc5c(c4)OCO5)CC3)cc2N1,708 s
15,COc1nn(C)cc1C(=O)Nc1ccc(Cl)c(Cl)c1,864 s
16,Cc1cc(C)cc(N2CCC(NC(=O)c3sccc3C)C2=O)c1 (centres undefined),916 s
17,O=C(CN1C(=O)C(C(=O)N2CCCC2)Sc2ccccc21)NCc1ccccc1Cl (centres undefined),928 s
18,Cc1noc(C)c1-c1ccc(S(=O)(=O)NC2CCC(C)CC2)cc1 (centres undefined),1030 s
19,CCN1CCC(N(Cc2ccc3c(c2)OCO3)C(=O)Nc2ccccc2)CC1,650 s
20,O=C(NC1CCCCCC1)c1cn(-c2ccc(-c3nc(C4CC4)no3)cn2)cn1,1010 s
21,Cc1cc2n(n1)CCCN2Cc1ccc(C(=O)NCCCN2CCCC2=O)cc1,587 s
22,CCn1ccc(C(=O)NC2CC2)n1,619 s
23,CCc1cccc(NC(=O)C2CCN(S(=O)(=O)c3ccc4c(c3)sc(=O)n4CC)CC2)c1,932 s
24,O[C@@H]1C[C@@H](c2nnc3n2CCN(Cc2ccccc2)C3)N(Cc2cccnc2)C1,563 s

# Results, then the molecule that gave them:
row,RP-LC retention time,Structure (SMILES)
1,1080 s,COc1ccc(-c2noc(Cn3nc(-c4ccc(Cl)cc4)ccc3=O)n2)cc1
2,831 s,COc1ccc(-c2nnc(SCc3cc(=O)n4c(C)csc4n3)o2)cc1
3,939 s,Fc1ccc(OCc2nc(-c3cccc(-c4ccn[nH]4)c3)no2)cc1
4,774 s,CC(CCc1ccccc1)NC(=O)CCc1c(-c2ccc(Cl)cc2)nc2ccccn12 (centres undefined)
5,868 s,CN1C(=O)C(c2c[nH]c3ccccc23)=C(c2c[nH]c3ccccc23)C1=O
6,1030 s,Cc1cc(C)c(NC(=O)Cn2cccc(-c3nc(-c4ccc(Br)cc4)no3)c2=O)c(C)c1
7,1110 s,CCc1nc(-c2ccc(-c3noc(CNS(=O)(=O)c4ccc(Cl)cc4)n3)cc2)cs1
8,875 s,CCOCCCNC(=O)C1c2c(n(C)c3ccccc23)SCC(=O)N1Cc1ccc(OC)cc1 (centres undefined)
9,744 s,CC(C)Oc1ccc(CNC(=O)CCc2c(-c3ccc(Br)cc3)nc3ccccn23)cc1
10,1230 s,Cc1nc2cc(-c3noc(-c4ccc(Cl)s4)n3)ccc2o1
11,625 s,O=C(NCC(c1ccco1)N1CCN(c2ccccc2)CC1)Oc1ccccc1 (centres undefined)
12,587 s,Cc1cccc(-c2nc(NCc3ccncc3)ncc2C(=O)O)c1
13,1090 s,CCc1ccc(-c2nc(C3CC(=O)N(c4ccc(OC)cc4)C3)no2)cc1 (centres undefined)
14,688 s,Cc1cccc(C(=O)N2CC(C)C(=O)Nc3ccccc32)c1 (centres undefined)
15,826 s,Cc1cccc(-c2nnc(C)c(N3CCc4ccccc4C3)n2)c1
16,1020 s,COc1ccc(Cn2cccc2-c2nc(C)no2)cc1
17,898 s,CCCN1C(=O)CN(S(=O)(=O)c2ccccc2)CC1(C)C(=O)NCc1ccc(C)cc1 (centres undefined)
18,732 s,Cc1cccc(-c2ncccc2CNS(=O)(=O)c2ccccc2Cl)c1
19,869 s,Cc1ccc(CNC(=O)c2ccc(-c3nnc4ccc(NC(=O)C5CCC5)cn34)cc2)cc1
20,787 s,CN(C)c1ccc(-c2nc3cnccn3c2Nc2ccc(F)cc2)cc1

row,RP-LC retention time,Structure (SMILES)
1,1040 s,Cc1ccc(-c2noc(Cc3nc(-c4cccc(Cl)c4)cs3)n2)cc1
2,1140 s,COc1ccccc1N1CCN(c2cc(SCC(=O)Nc3ccc(C(C)C)cc3)ncn2)CC1
3,911 s,CCCN1C(=O)c2ccccc2Sc2cc(-c3noc(CNC(=O)c4ccco4)n3)ccc21
4,905 s,CN(C)C(=O)C1CCN(c2nc3ccc(-c4cccc(F)c4)nc3s2)CC1
5,645 s,COc1ccccc1C(CNC(=O)c1cc(=O)c2c(C)cc(C)cc2o1)N(C)C (centres undefined)
6,1240 s,CCCN(C(C)=O)c1nc(-c2ccc(Br)cc2)cs1
7,772 s,COc1ccc(-n2nc(SCC(=O)Nc3ccc(F)c(F)c3)ccc2=O)cc1
8,1220 s,Cc1ccc(-c2nnc(Cc3nc(-c4ccc(Br)cc4)no3)o2)cc1F
9,880 s,Nc1nc2c(cnn2CCc2ccccc2)c2nc(-c3ccco3)nn12
10,847 s,Cc1nnc(-c2ccc3ccn(CC(=O)Nc4cccc(Cl)c4)c3c2)o1
11,904 s,CCn1cc(-c2nc(CC(=O)NCc3ccc(Cl)cc3)cs2)c2cccnc21
12,720 s,O=c1ccc(-c2ccc3c(c2)OCO3)nn1CCc1nc(-c2cccnc2)no1
13,841 s,COC(=O)C(Cc1ccccc1)NC(=O)N1CCCn2nc(-c3cccs3)cc2C1 (centres undefined)
14,860 s,Cc1ccc(F)cc1NC(=O)Cn1nc(N(C)C)c2ccccc2c1=O
15,824 s,O=C(CN1CCN(Cc2ccc(F)cc2)C1=O)N1CCN(c2ccccc2)CC1
16,1300 s,Cc1ccc(-c2csc(NC(=O)c3sc(-c4ccccc4)nc3C)n2)cc1
17,1310 s,CCOc1ccc(-c2csc(Cc3nc(-c4cccc(C)c4)no3)n2)cc1
18,744 s,O=C(Nc1cccn2cnnc12)c1ccc(C(F)(F)F)cc1
19,681 s,CN1C(=O)c2cccn2CC1C(=O)Nc1ccccc1 (centres undefined)
20,1200 s,Cc1ccc(C2c3[nH]c4ccccc4c3CCN2C(=O)c2cccs2)cc1 (centres undefined)
